Source: US6747008B1, “Methods for treating and preventing alopecia” (University of Southern California, priority 2000, dated 2004)
Entries after “also recorded” stand apart in the source; their conditions may differ. Where no end group is shown, it is not given here. [ ]: non-standard residue; d: D form. Nle = CCCC[C@H](N)C(=O)O

Assays:
Sprague Dawley rats = assay: Full-thickness excision model, rat: hair follicle regeneration; format: in vivo; details: day 21, topical in 10% CMC or subcutaneous, not observed in placebo
Description: (§1) Materials: The viscous vehicle was prepared from carboxymethylcellulose (CMC sodium salt, low viscosity, Sigma, St. Louis, Mo., Lot Number 34H0310) consisting of 10% low viscosity CMC in 0.05 M phosphate buffer, pH. 7.2, and sterilized by autoclaving followed by mixing with sterile peptide solutions. For subcutaneous administration, the peptides were dissolved in Lactated Ringers' Solution. […] 9GD (SEQ ID NO:41) was prepared by the Microchemical Core Laboratory at USC.
(§2) Surgical model: During the experimental period, C57BL/Ksj-db/db diabetic mice (Jackson Laboratories, Cold Spring Harbor, Me.) or Sprague Dawley rats were housed one per cage and maintained in a central animal care facility with a 12-hour light/dark cycle. Water and standard rodent laboratory chow were supplied ad libitum. All animals used for this study received humane care as defined by the National Research Council's criteria for humane care. The study protocols were approved by the University of Southern California's Institutional Animal Care and Use Committee before initiation of the studies.
Rat Model: Female Sprague-Dawley rats, 175 to 200 grams, were anesthetized with intramuscular ketamine/rompun. The backs of the rats were shaved with animal clippers, scrubbed with betadine, and washed with 70% alcohol before surgery. […]

[1] = system: C57BL/Ksj-db/db diabetic mice; assay: Full-thickness excision model, mouse: hair follicle regeneration; format: in vivo; details: day 26, topical in 10% CMC or subcutaneous, not observed in placebo
Description: as §1, §2
Mouse Model: On day 0, C57BL/Ksj-db/db diabetic mice were anesthetized with intramuscular ketamine/xylazine and backs were swabbed with 70% isopropyl alcohol followed by betadine. Afterwards, a 1.3 cm diameter full thickness skin area was excised on the back of each mouse. […]

[2] = system: patients with newly diagnosed breast cancer receiving doxorubicin and cyclophosphamide; assay: Phase I/II dose escalation study of AII(1-7) before and after chemotherapy; adverse event alopecia; format: in vivo, human; details: for incidents of alopecia associated with chemotherapy: breast cancer patients, doxorubicin 60 mg/m2 and cyclophosphamide 600 mg/m2, subcutaneous once daily
Description: Dose escalation within an individual patient was not permitted.
Following the rest period, a chemotherapy regimen containing doxorubicin 60 mg/m^2 and cyclophosphamide 600 mg/m^2 was initiated.
An adverse event (AE) was considered any unfavorable or unintended change in structure, function, signs, or symptoms temporally associated with the use of a medicinal product experienced by a person administered a pharmaceutical product, whether or not a causal relationship with the product has been established. During the conduct of this clinical trial, study personnel asked open-ended questions to obtain information about AEs at every visit. Signs and symptoms were graded by the Investigator using the WHO toxicity criteria. For alopecia, no notation was made if there was no hair loss. If there was hair loss, it was graded as mild (1) or pronounced (2). In this trial, the incidents of alopecia associated with chemotherapy were as follows: […]

C57BL/6 mice = assay: Hair cycle synchronized animal model, cyclophosphamide induced alopecia; format: in vivo, mouse; details: for mice with observable hair regrowth: day 13, 30 μg/kg/day, control 1 of 5; for percentage of the area with hair regrowth: day 13, FIG. 1; for number of mature hair follicles present: day 19, histology, FIG. 2
Source text: Adolescent, 6- to 8-week-old female, C57BL/6 mice (Simonson, Gilroy, Calif.) with normal, black fur were purchased and housed in community cages with 12-hour light cycles with mouse chow and water ad libitum. In contrast to the mosaic cycling of human hair follicles, these mice display a unique hair cycle synchronization, which makes them a most productive model for hair research. Only mice in the resting stage of the hair cycle (telogen) are used for these studies. In the truncal skin of mice all melanocytes reside in hair follicles, and pigment production (melanogenesis) occurs exclusively in anagen follicles. Thus, telogen C57BL/6 mice can be recognized reliably by the homogeneously pink color of their back skin.
Predictable and highly synchronized anagen development can only be achieved with anagen induction by depilation, as opposed to spontaneous anagen development. Thus, anagen was induced in the back skin of telogen mice by depilation so that, at the start of pharmacological manipulation, all hair follicles in the depilated back skin area of all mice are in exactly the same stage of anagen development. As soon as anagen VI had been reached, all mice were injected once with a high dose of cyclophosphamide. In all experiments, control and test mice were then compared for signs of hair loss, for skin color changes indicating the effect of test drugs on hair cycling and follicle melanogenesis, and for hair regrowth.
Under ketamine hydrochloride-induced general anesthesia, telogen mice that had gone through several postnatal hair cycles were induced to enter anagen by depilation of all telogen hair shafts. This was done by applying a melted wax/rosin mixture to the back skin and by peeling off this mixture after hardening. By this technique, all depilated telogen hair follicles immediately begin to transform into anagen follicles with their associated melanogenesis.
As soon as early anagen VI had been reached by these induced anagen follicles, ie, on day 9 postdepilation (p.d.), a single intraperitoneal injection of cyclophosphamide was given (150 mg/kg).
Chemotherapy induced alopecia was manipulated pharmacologically by administration of the active agents of the present invention, topically or by subcutaneous injection once daily until necropsy. Pigmentation, hair regrowth, and follicle histology are analyzed as indicated. Particular attention is paid to any retarding or enhancing effects on the degree of alopecia, to the hair regrowth pattern, and to the pigmentation of regrowing hair shafts.
After the cyclophosphamide injection on day 9 p.d, the back skin of test and control mice were examined daily for a period of up to 32 days for signs of alopecia and color conversion from black to pink, indicating the progression of anagen follicles in the hair cycle via catagen to telogen. This color change results from the abrupt termination of melanogenesis in follicular melanocytes very early during catagen development. Visible changes were recorded and photodocumented. Starting 1 week after CYP injection, the skin was examined daily for signs of hair regrowth, skin repigmentation, and the quality of hair shaft pigmentation.
In C57BL/6 mice of this age group, depilation induced anagen follicles spontaneously enter catagen between days 17 and 20 p.d., mostly around day 18. The development of catagen follicles was indicated macroscopically by a change in skin color from black to light gray and occurs in large waves, appearing first in the neck region. then on the flanks, until finally the tail region enters catagen. Within 1 to 2 days after catagen induction, the follicle enters telogen, as indicated by a skin color change from gray to pink. […]

[3] = Fragments tested for effectiveness (test not specified)

Row | Molecule | microscopic examination of wound site: new adnexal structures (new hair follicles) (Sprague Dawley rats) | microscopic examination of wound site: new adnexal structures (new hair follicles) [1] | incidents of alopecia associated with chemotherapy [2] [%] | effect on alopecia in chemotherapy patients relative to control ([2]; chemotherapy patients) | mice with observable hair regrowth (C57BL/6 mice) | percentage of the area with hair regrowth (C57BL/6 mice) | number of mature hair follicles present (C57BL/6 mice) | effectiveness [3]
1 | Asp-Arg-Val-Tyr-Ile-His-Pro [AII(1-7)] | formation of new adnexal structures | formation of new adnexal structures | 46 | significantly decreased alopecia | 4 of 5 | significantly increased | increased | –
2 | DR(nor)YIHP (DR[Nle]YIHP) [Analogue 9GD] | formation of new adnexal structures | formation of new adnexal structures | – | – | 5 of 5 | significantly increased | increased | –
3 | His-Pro-Phe (HPF) [AII(6-8)] | – | – | – | – | – | – | – | not to be effective
4 | Tyr-Ile-His-Pro-Phe (YIHPF) [AII(4-8)] | – | – | – | – | – | – | – | not to be effective; also recorded: ineffective
5 | Filgratim: filgrastim (NEUPOGEN, Amgen, Inc.), comparator arm (protein, chains of the INN, looked up) MTPLGPASSLPQSFLLKCLEQVRKIQGDGAALQEKLCATYKLCHPEELVLLGHSLGIPWAPLSSCPSQALQLAGCLSQLHSGLFLYQGLLQALEGISPELGPTLDTLQLDVADFATTIWQQMEELGMAPALQPTQGAMPAFASAFQRRAGGVLVASHLQSFLEVSYRVLRHLAQP | – | – | 40 | – | – | – | – | –
